From US20200323950A1, “ANTIBACTERIAL PEPTIDES AND COMBINATIONS FOR CO-THERAPY” (priority 2017, published 2020)
≈ marks a conversion by molar mass, not a printed value. Like-named read-outs stand apart in the source and are kept apart here. *1 amine or outer side, *2 acyl side, *3 side chain or, on linkers, in order; H or OH if unused. Bridges are numbered along the chain shown (N, C = ends). Roman numbers before positions name the chains, in order. [ ]: non-standard residue; d: D form. The star is where a group is joined. Maleimide(3,4-diyl) = O=C1NC(=O)C([*:2])=C1[*:1]; Ac6c = NC1(C(=O)O)CCCCC1; Dab = NCC[C@H](N)C(=O)O; NHNH2 = NN*

What was measured:
bacterial DnaK = bacterial DnaK (Escherichia coli, UniProt P0A6Y8); conditions: Cassone et al., 2008; cited from earlier work
Chain of bacterial DnaK (P0A6Y8 whole entry): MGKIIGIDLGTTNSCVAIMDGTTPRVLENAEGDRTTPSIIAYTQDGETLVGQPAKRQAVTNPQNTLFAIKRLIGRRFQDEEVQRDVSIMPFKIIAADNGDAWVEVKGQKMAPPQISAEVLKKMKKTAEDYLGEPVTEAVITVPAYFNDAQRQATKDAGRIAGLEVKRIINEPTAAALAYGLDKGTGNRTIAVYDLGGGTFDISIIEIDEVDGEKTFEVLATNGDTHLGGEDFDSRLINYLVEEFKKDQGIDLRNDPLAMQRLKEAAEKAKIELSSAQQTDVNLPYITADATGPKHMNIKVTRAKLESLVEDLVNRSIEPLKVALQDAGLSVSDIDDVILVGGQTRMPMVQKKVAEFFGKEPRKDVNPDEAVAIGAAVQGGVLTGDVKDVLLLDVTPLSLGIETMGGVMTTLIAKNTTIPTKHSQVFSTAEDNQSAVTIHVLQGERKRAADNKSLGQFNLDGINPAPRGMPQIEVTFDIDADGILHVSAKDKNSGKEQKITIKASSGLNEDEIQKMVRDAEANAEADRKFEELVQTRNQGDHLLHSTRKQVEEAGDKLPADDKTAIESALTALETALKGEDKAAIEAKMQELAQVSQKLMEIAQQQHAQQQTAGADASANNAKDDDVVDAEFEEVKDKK

[1] = test system: Acinetobacter baumannii BAA-1605; type: cell-based; conditions: A. baumannii BAA-1605
Experimental: In vitro activity and synergy. Minimal inhibitory concentration (MIC) assays were performed using sterile 96-well polypropylene plates in a final volume of 100 mL. Briefly, 50 μL of midlogarithmic phase bacterial cultures were diluted to 5×10^5 CFU/mL in Mueller-Hinton broth (MHB) and then added to 50 μL of the serially diluted antibiotic. […] MICs were identified as the lowest antimicrobial concentrations at which turbidity was not observed. Antimicrobial synergy was determined by evaluating the fractional inhibitory concentration (FIC) index and was characterized by a conventional checkerboard assay (Fernandez-Cuenca et al., 2003).

[2] = test system: Klebsiella pneumoniae K97/09; experiment: Checkerboard synergy assay (FIC index); type: cell-based; conditions: K. pneumoniae K97/09
Experimental: In vitro activity and synergy. Minimal inhibitory concentration (MIC) assays were performed using sterile 96-well polypropylene plates in a final volume of […]. Briefly, 50 μL of midlogarithmic phase bacterial cultures were diluted to 5×10^5 CFU/mL in Mueller-Hinton broth (MHB) and then added to 50 μL of the serially diluted antibiotic. The highest A3-APO and other test compound concentration evaluated was 256 mg/L. Cultures were incubated at 37° C. for 16-20 h without shaking. MICs were identified as the lowest antimicrobial concentrations at which turbidity was not observed. Antimicrobial synergy was determined by evaluating the fractional inhibitory concentration (FIC) index and was characterized by a conventional checkerboard assay (Fernandez-Cuenca et al., 2003). Bacteria grown to mid-logarithmic phase in MHB were pre-incubated with serially diluted concentrations of peptides such as A3-APO, and the antimicrobial controls, imipenem, colistin or meropenem.
The sum of the FICs (Σ FIC) was calculated with the equation Σ FIC=FICA+FICB=(CA/MICA)+(CB/MICB), where MICA and MICB are the MICs of antimicrobial A and B alone, respectively, and CA and CB are the concentrations of the drugs when combined, respectively. Synergy was defined as a Σ FICs≤0.5 and additive activity was defined as a Σ FICs>0.5≤1.0.

H. influenzae = experiment: Synergy results for co-administration of A3-APO (ARV-1501); type: cell-based; conditions: antibiotic co-administered with A3-APO (ARV-1501)
E. coli = experiment: as above; type: cell-based; conditions: antibiotic co-administered with A3-APO (ARV-1501)
K. pneumoniae = experiment: as above; type: cell-based
Experimental: Restoring antibiotic sensitivity to resistant bacteria. A colistin-resistant, carbapenem-resistant strain of K. pneumonia (K97/09) from a clinical isolate was used to test the effect of A3-APO treatment on antibiotic resistance. An in vitro assay measuring visible bacterial growth in the presence of A3-APO and imipenem or colistin was performed.
Synergy Results for Co-administration of A3-APO (ARV-1501)

[3] = test system: multidrug-resistant Klebsiella pneumoniae K97/09; experiment: microbe, parasite or virus in culture
[4] = test system: multidrug-resistant Acinetobacter baumannii BAA-1605; experiment: microbe, parasite or virus in culture; conditions: BAA1605
K. pneumoniae K97/09 [5] = experiment: Bacteremia Synergy Assay 1 (mouse systemic infection); type: in vivo
Experimental: (§1) In vivo Studies. Animals. Assays 1-2. NMRI (Naval Medical Research Institute) BR or CD-1 mice (Toxi-Coop Zrt, Budapest, Hungary) were housed in plastic type 2 cages, 3-5 mice per cage, on softwood granules as bedding. The room was kept between 21° C. and 25° C. with 12 h light:12 h dark cycles. The animals had free access to tap water and pelleted rodent food. Upon completion of the experiments, surviving mice were euthanized by diethyl ether inhalation. Animals were maintained and handled in accordance with the recommendations of the Guidelines for the Care and Use of Laboratory Animals, and the protocols were approved by the Animal Care Committee of Semmelweis University. The planned 15 treatment groups of mice were divided roughly equally into two assays with 8 and 7 treatment groups and untreated controls in each assay for safe and humane handling of large numbers of mice.
(§2) Infection models. NMRI mice weighing approximately 20 g (4 weeks old) were infected by intraperitoneal (ip) injection of 4×10^8 CFU/g K. pneumoniae K97/09. Mice were randomly allocated to 8 and […] groups (5 mice per group).
Bacteremia Synergy Assay 1.
Group 1: phosphate buffered saline (PBS) subcutaneously (sc) 1 h after infection. Group 2: imipenem 30 mg/kg sc at 2, 14 and 26 h after infection. […]
Survival was recorded hourly 24-36 h after infection. […]

S. typhimurium = experiment: Synergy results for co-administration of A3-APO (ARV-1501); type: cell-based; conditions: antibiotic co-administered with A3-APO (ARV-1501)
[6] = test system: panel of Gram-negative nosocomial bacteria (E. coli, K. pneumoniae, A. baumannii, P. aeruginosa); experiment: Antibacterial assay (MIC), ranges over the panel; type: cell-based; conditions: against E. coli, A. baumannii and P. aeruginosa
Experimental: (§3) Antibacterial assay. Antibacterial assays are undertaken to determine the minimal inhibitory concentrations (MIC) as described previouslyl^6.
(§4) Antibacterial activity. Each C-terminal modified PrAMP DTM-linked tetramer is assayed against nosocomial Gram-negative bacteria, including E. coli ATCC 29222, K. pneumoniae ATCC 13883, A. baumannii ATCC 19606 and P. aeruginosa ATCC 47085.

A. baumannii ATCC 19606 = experiment: Antibacterial assay (MIC); type: cell-based; conditions: A. baumannii ATCC 19606, MHB, 37° C.
Experimental: as §3, §4

P. aeruginosa ATCC 47085 = experiment: Antibacterial assay (MIC); type: cell-based; conditions: P. aeruginosa ATCC 47085, MHB, 37° C.
Experimental: as §3, §4

K. pneumoniae ATCC 13883 = experiment: Antibacterial assay (MIC); type: cell-based; conditions: K. pneumoniae ATCC 13883, MHB, 37° C.
Experimental: as §3, §4

E. coli ATCC 29222 = experiment: Antibacterial assay (MIC); type: cell-based; conditions: E. coli ATCC 29222, MHB, 37° C.
Experimental: as §3, §4

[7] = test system: multidrug-resistant Klebsiella pneumoniae K97/09; conditions: K. pneumoniae K97/09, compound alone
K. pneumoniae K97/09 [8] = experiment: Bacteremia Synergy Assay 2 (mouse systemic infection); type: in vivo
Experimental: as §1, §2
Bacteremia SYNERGY ASSAY 2.
Group 1: PBS sc 1 h after infection. Group 2: Colistin 1 mg/kg sc at 2 and 13 h after infection. Group 3: A3-APO 1 mg/kg im 1 and 12 h after infection. Group 4: A3-APO 1 mg/kg im 1 and 12 h after infection, colistin 1 mg/kg sc at 2 and 13 h after infection. […]

[9] = test system: multidrug-resistant Acinetobacter baumannii BAA-1605; conditions: A. baumannii BAA-1605, compound alone

Compound: I: H-[Ac6c]RPDKPRPYLGRPRPPRPVR[Dab]-NH2 / II: H-[Ac6c]RPDKPRPYLGRPRPPRPVR (amide I:21-II:C) [Gly11, (H-Chex-Arg-Pro-Asp-Lys-Pro-Arg-Pro-Tyr-Leu-Gly-Arg-Pro-Arg-Pro-Pro-Arg-Pro-Val-Arg)2-Dab-NH2]
- DnaK binding (bacterial DnaK): fails to bind bacterial DnaK
- improvement in the MIC values when added together with imipenem or colistin [1]: failed to exert any improvement
- improvement in the MIC values when added together with imipenem or colistin [2]: failed to exert any improvement

Compound: O=C(N[C@H](CO)[C@H](O)c1ccc([N+](=O)[O-])cc1)C(Cl)Cl [chloramphenicol]
- Outcome (H. influenzae): MIC lowered with priming
- Outcome (E. coli): MIC lowered with priming
- Outcome (K. pneumoniae; antibiotic co-administered with A3-APO (ARV-1501)): MIC lowered with priming

Compound: C[C@@H](O)[C@H]1C(=O)N2C(C(=O)O)=C(SCCN=CN)C[C@H]12 [imipenem]
- MIC [3]: > 256 µg/mL
- MIC [4]: 64 µg/mL (≈ 214 µM)
- survival improvement at 36 h over untreated controls (K. pneumoniae K97/09 [5]; 30 mg/kg sc 3 times (Group 2)): 40%

Compound: Cc1cc(NS(=O)(=O)c2ccc(N)cc2)no1 [sulfamethoxazole]
- Outcome (S. typhimurium): MIC lowered with priming

Compound: I: H-[Ac6c]RPDKPRPYLPRPRPPRPVR[Dab]C-NHNH2 / II: H-[Ac6c]RPDKPRPYLPRPRPPRPVR[Dab]C-NHNH2 / III: H-[Ac6c]RPDKPRPYLPRPRPPRPVR / IV: H-[Ac6c]RPDKPRPYLPRPRPPRPVR (amide I:21-III:C, II:21-IV:C; linker I:22-II:22 via Maleimide(3,4-diyl)) [tetramer-DTM-NHNH2]
- MIC (range over the bacteria) [6]: 0.49 to 2.33 µM
- Antibacterial activity, MIC (A. baumannii ATCC 19606): 2.33 ± 0.48 µM
- Antibacterial activity, MIC (P. aeruginosa ATCC 47085): 1.14 ± 0.03 µM
- Antibacterial activity, MIC (K. pneumoniae ATCC 13883): 0.49 ± 0.01 µM
- Antibacterial activity, MIC (E. coli ATCC 29222): 0.93 ± 0.02 µM

Compound: colistin
- MIC [7]: 64 µg/mL
- reduction of the bacterial burden (K. pneumoniae K97/09 [8]; colistin 1 mg/kg sc (Group 2), after 6 h): < 1 log 10 unit
- survival at 36 h (K. pneumoniae K97/09 [8]; colistin 1 mg/kg sc twice (Group 2), monotherapy): 40%
- MIC of the antibiotic before co-administration (decrease from) (K. pneumoniae; antibiotic without A3-APO): > 64
- MIC of the antibiotic on co-administration (decrease to) (K. pneumoniae; co-administered with A3-APO (ARV-1501)): 1
- survival (K. pneumoniae K97/09 [5]; 10 mg/kg sc (Group 4), monotherapy): 60%
- MIC [9]: < 0.5 µg/mL

Compound: CC1(C)S[C@@H]2[C@H](NC(=O)[C@H](N)c3ccc(O)cc3)C(=O)N2[C@H]1C(=O)O [amoxicillin]
- Outcome (H. influenzae): MIC lowered with priming
- Outcome (E. coli): reversal of TEM-1 related
